The target in one experiment is T1, Estrogen receptor (Homo sapiens, UniProt P03372).
T1 sequence (P03372 whole entry): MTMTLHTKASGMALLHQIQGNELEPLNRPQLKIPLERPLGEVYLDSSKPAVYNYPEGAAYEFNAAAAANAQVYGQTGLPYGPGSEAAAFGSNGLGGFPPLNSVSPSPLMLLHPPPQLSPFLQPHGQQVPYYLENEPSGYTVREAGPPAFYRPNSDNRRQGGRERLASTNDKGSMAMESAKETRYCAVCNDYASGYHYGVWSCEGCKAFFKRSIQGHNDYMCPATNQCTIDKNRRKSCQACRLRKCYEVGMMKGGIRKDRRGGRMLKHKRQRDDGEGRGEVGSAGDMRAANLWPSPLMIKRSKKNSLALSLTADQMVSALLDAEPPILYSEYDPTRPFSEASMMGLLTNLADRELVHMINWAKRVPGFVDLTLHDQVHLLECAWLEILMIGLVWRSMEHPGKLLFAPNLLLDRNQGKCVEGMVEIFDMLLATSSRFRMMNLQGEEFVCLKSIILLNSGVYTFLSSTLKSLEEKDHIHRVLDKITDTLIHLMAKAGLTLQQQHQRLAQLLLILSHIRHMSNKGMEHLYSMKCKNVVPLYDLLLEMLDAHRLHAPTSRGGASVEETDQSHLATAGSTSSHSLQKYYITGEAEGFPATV
The experiment in a line: Displacement of fluorescent ligand from human recombinant GST-tagged ER-alpha ligand binding domain (307 to 554 residues) incubated for 15 mins by TR-FRET based competitive assay.
For the molecule `C[C@@H]1Cc2c([nH]c3ccccc23)[C@@H](c2cnc(N3CCC4(CC3)CC(CN3CC5(CCN(c6ccc7c(c6)CN(C6CCC(=O)NC6=O)C7=O)CC5)C3)C4)nc2)N1CC(C)(C)F` (stereo partly drawn), the IC50 is 1.9 nM.

In a further experiment the target is Protein cereblon/Estrogen receptor (Homo sapiens, UniProt P03372+Q96SW2). Kind of experiment: Protac activity at CRBN/ERalpha in human MCF7 cells assessed as induction of ERalpha protein degradation incubated for 8 to 22 hrs by immunofluorescence assay. Type of experiment: cell-based.
Protein cereblon/Estrogen receptor, sequence (Q96SW2 whole entry, one chain of several): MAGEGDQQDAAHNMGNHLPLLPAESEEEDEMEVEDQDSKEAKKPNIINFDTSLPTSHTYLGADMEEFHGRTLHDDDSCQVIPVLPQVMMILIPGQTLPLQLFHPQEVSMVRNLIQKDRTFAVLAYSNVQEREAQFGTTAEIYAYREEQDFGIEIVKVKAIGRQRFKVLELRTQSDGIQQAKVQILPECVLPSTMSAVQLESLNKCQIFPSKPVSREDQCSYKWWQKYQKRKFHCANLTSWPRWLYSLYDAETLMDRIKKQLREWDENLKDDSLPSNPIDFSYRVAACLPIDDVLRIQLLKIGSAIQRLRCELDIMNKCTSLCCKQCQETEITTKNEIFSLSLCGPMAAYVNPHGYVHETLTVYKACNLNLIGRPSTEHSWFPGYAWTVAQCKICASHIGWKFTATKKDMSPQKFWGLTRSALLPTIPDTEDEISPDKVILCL
Consider `COc1cc(N2CCN(CCC3CCN(c4ncc([C@@H]5c6[nH]c7ccccc7c6C[C@@H](C)N5CC(C)(C)F)cn4)CC3)CC2)cc2c1C(=O)N(C1CCC(=O)NC1=O)C2` (stereo partly drawn), for which the IC50 turned out to be 0.4 nM. With `C[C@@H]1Cc2c([nH]c3ccccc23)[C@@H](c2c(F)cc(OCCCCCN3CCN(c4ccc5c(c4)CN(C4CCC(=O)NC4=O)C5=O)CC3)cc2F)N1CC(C)(C)F` (stereo partly drawn), the IC50 is 0.6 nM. Consider `C[C@@H]1Cc2c([nH]c3ccccc23)[C@@H](c2cnc(N3CCC4(CC3)CC(CN3CC5(CCN(c6ccc7c(c6)CN(C6CCC(=O)NC6=O)C7=O)CC5)C3)C4)nc2)N1CC(C)(C)F` (stereo partly drawn), for which the IC50 is 0.4 nM.

For the molecule `C[C@@H]1Cc2c([nH]c3ccccc23)[C@@H](c2cnc(N3CCC(CN4CCN(CC5CCN(c6ccc7c(c6)CN(C6CCC(=O)NC6=O)C7=O)CC5)CC4)CC3)nc2)N1CC(C)(C)F` (stereo partly drawn), the IC50 is 0.6 nM. Take `C[C@@H]1Cc2c([nH]c3ccccc23)[C@@H](c2cnc(OC3CCC4(CC3)CCN(CC3CCN(c5ccc6c(c5)CN(C5CCC(=O)NC5=O)C6=O)CC3)CC4)nc2)N1CC(C)(C)F` (stereo partly drawn): the IC50 amounted to 0.4 nM. As for `COc1cc(N2CCN(CC3CCN(c4ncc([C@@H]5c6[nH]c7ccccc7c6C[C@@H](C)N5CC(C)(C)F)cn4)CC3)CC2)cc2c1C(=O)N(C1CCC(=O)NC1=O)C2` (stereo partly drawn), the IC50 is 0.7 nM. For the molecule `C[C@@H]1Cc2c([nH]c3ccccc23)[C@@H](c2cnc(N3CCC(CCN4CCOC5(CC4)CCN(c4ccc6c(c4)CN(C4CCC(=O)NC4=O)C6=O)CC5)CC3)nc2)N1CC(C)(C)F` (stereo partly drawn), the IC50 is 0.5 nM.

In the case of `C[C@@H]1Cc2c([nH]c3ccccc23)[C@@H](c2cnc(N3CCC(OCCN4CCN(c5ccc6c(c5)CN(C5CCC(=O)NC5=O)C6=O)CC4)CC3)nc2)N1CC(C)(C)F` (stereo partly drawn), the IC50 is 0.5 nM. Turning to `C[C@@H]1Cc2c([nH]c3ccccc23)[C@@H](c2cnc(N3CCC4(CCN(CCC5CCN(c6ccc7c(c6)CN(C6CCC(=O)NC6=O)C7=O)CC5)CC4)CC3)nc2)N1CC(C)(C)F` (stereo partly drawn), the IC50 came out at 0.8 nM. For the molecule `C[C@@H]1Cc2c([nH]c3ccccc23)[C@@H](c2cnc(N3CCC(CCN4CCN(c5ccc6c(c5)CN(C5CCC(=O)NC5=O)C6=O)CC4)CC3)nc2)N1CC(C)(C)F` (stereo partly drawn), the IC50 came to 0.5 nM. As for `C[C@@H]1Cc2c([nH]c3ccccc23)[C@@H](c2cnc(N3CCC(CCN4CCC5(CC4)CCN(c4ccc6c(c4)CN(C4CCC(=O)NC4=O)C6=O)CC5)CC3)nc2)N1CC(C)(C)F` (stereo partly drawn), the IC50 came to 0.4 nM. As for `C[C@@H]1Cc2c([nH]c3ccccc23)[C@@H](c2cnc(N3CCC(CN4CCOC5(CC4)CCN(c4ccc6c(c4)CN(C4CCC(=O)NC4=O)C6=O)CC5)CC3)nc2)N1CC(C)(C)F` (stereo partly drawn), the IC50 turned out to be 0.4 nM.

Broadly, the IC50 is the midpoint of a concentration-inhibition curve.

(Values after ChEMBL document CHEMBL4665908, “Estrogen Receptor Degrading PROTACS for the Treatment of Breast Cancer” (ACS Med Chem Lett, 2020).)
